Data taken from article PMC10201049, “Rhein-attenuates LPS-induced acute lung injury via targeting NFATc1/Trem2 axis” (Inflammation Research, 2023).

Molecular target: T1, NFATc1 (Mus musculus, UniProt O88942)
T1 construct: endogenous protein in RAW264.7 cell lysate
T1 sequence (O88942 1-717): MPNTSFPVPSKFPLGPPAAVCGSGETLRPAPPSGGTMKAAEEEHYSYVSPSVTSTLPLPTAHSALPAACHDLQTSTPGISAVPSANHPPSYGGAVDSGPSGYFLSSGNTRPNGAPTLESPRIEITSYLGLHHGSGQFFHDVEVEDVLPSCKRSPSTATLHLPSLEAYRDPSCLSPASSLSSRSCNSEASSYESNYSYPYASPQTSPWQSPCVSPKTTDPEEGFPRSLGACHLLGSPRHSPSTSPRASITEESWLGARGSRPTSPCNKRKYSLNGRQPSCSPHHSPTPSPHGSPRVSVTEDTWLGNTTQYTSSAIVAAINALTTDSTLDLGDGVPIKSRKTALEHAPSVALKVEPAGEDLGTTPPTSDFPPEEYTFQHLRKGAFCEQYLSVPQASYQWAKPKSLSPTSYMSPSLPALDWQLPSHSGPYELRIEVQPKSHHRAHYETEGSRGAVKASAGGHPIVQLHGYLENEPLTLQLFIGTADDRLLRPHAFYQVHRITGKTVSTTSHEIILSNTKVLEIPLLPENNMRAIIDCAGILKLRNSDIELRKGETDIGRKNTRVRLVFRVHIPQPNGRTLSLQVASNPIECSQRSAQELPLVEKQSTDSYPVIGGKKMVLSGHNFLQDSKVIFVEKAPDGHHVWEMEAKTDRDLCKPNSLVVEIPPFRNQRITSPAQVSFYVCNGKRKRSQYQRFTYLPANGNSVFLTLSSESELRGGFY
Test: biotin pull-down on streptavidin beads, western blot
Format: biochemical
Conditions: labelled compound (biotin conjugate of rhein, linker only drawn); biotin alone as control; RAW264.7 lysate, 4 °C bead loading

O=C1N[C@H]2[C@H](CS[C@H]2CCCCC(=O)Oc2cccc3c2C(=O)c2c(O)cc(C(=O)O)cc2C3=O)N1 [Bio-Rhein, Biotinylated-Rhein]
biotin pull-down on streptavidin beads, western blot: The results of western immunoblotting indicated the direct interaction between rhein and NFATc1
